# Experimental data taken from PMC8033486 (Frontiers in Pharmacology, 2021).
# Entries after “also recorded” stand apart in the source; their conditions may differ. Counter-ions that a name gives are not always drawn. Like-named read-outs stand apart in the source and are kept apart here.
# B1: interferon-γ (protein, UniProt P01579 24-161, looked up)
# Interferon gamma: QDPYVKEAENLKKYFNAGHSDVADNGTLFLGILKNWKEESDRKIMQSQIVSFYFKLFKNFKDDQSIQKSVETIKEDMNVKFFNSNKKKRDDFEKLTNYSVTDLNVQRKAIHELIQVMAELSPAAKTGKRKRSQMLFRG
# What was measured:
# SARS-CoV-2 [1] = test: microbe, parasite or virus in culture; type: cell-based; settings: for Inhibition of SARS-CoV-2-induced cytopathic effect, result in words: Vero E6
# [2] = tested on: lentiviruses pseudotyped with SARS-CoV-2 Spike; type: cell-based
# SARS-CoV-2 [3] = type: cell-based; settings: Vero E6, day 3 post-infection, non-toxic concentrations
# in vitro = settings: African green monkey
# [4] = tested on: lentiviruses pseudotyped with SARS-CoV-2 Spike; type: cell-based; remark: listed apart in the source
# [5] = CC50, Vero E6, no virus, 3 days
molecule,measurement,setting,value
Alpha-1 Antitrypsin,"Inhibition of SARS-CoV-2-induced cytopathic effect, result in words",SARS-CoV-2 [1],exerted an effect but required high concentrations
same,"IC50, result in words","SARS-CoV-2 [1]; Vero E6, cytopathic effect",active at 12.5
same,CC50,"Vero E6 cells; Vero E6, no virus",> 12.5 mg/mL
CC(C)OC(=O)C(C)(C)Oc1ccc(C(=O)c2ccc(Cl)cc2)cc1 [Fenofibrate],"Block of SARS-CoV-2 Spike pseudovirus entry, result in words",[2],viral entry was abrogated
same,"SARS-CoV-2 release to the supernatant (nucleoprotein ELISA), result in words",SARS-CoV-2 [3],less active inhibiting viral release as compared to the rest of the inhibitors tested
same,CC50 at 3 days,in vitro,> 100 µM
CCN1CCN(Cc2ccc(Nc3ncc(F)c(-c4cc(F)c5nc(C)n(C(C)C)c5c4)n3)nc2)CC1 [Abenaciclib],CC50,"Vero E6 cells; Vero E6, no virus, 3 days",> 1 µM
CCOC(=O)c1c(CSc2ccccc2)n(C)c2cc(Br)c(O)c(CN(C)C)c12 [Arbidol HCl],"Inhibition of SARS-CoV-2-induced cytopathic effect, result in words",SARS-CoV-2 [1],failed to protected Vero E6 cells from SARS-CoV-2 induced cytopathic effect
same,"Block of SARS-CoV-2 Spike pseudovirus entry, result in words",[2],partial blocking effect
same,CC50 at 3 days,in vitro; [5],> 40 µM
Cl.Cl.O=C(O)COCCN1CCN(C(c2ccccc2)c2ccc(Cl)cc2)CC1 (centres unmarked) [Cetirizine dihydorcloride],IC50 (Mean +/- SD),SARS-CoV-2 [1],Not Active
same,CC50,Vero E6 cells,> 100 µM
CCN(CC)CCCC(C)Nc1ccnc2cc(Cl)ccc12 (centres unmarked) [Chloroquine],IC50,"SARS-CoV-2 [1]; Severe acute respiratory syndrome coronavirus 2, Vero C1008, 72 h, read-out: IC50 (Mean +/- SD)",3.9 µM
same,IC50,SARS-CoV-2 [1]; read-out: IC50 (Mean +/- SD),3.86 µM
same,"Block of SARS-CoV-2 Spike pseudovirus entry, result in words",[4],reduced its inhibitory activity
CCCCN1C[C@H](O)[C@@H](O)[C@H](O)[C@H]1CO [NB-DNJ],IC50 (Mean +/- SD),SARS-CoV-2 [1],active at 100
same,"Inhibition of SARS-CoV-2-induced cytopathic effect, result in words",SARS-CoV-2 [1],decreased SARS-CoV-2 cytopathic effect
same,"Block of SARS-CoV-2 Spike pseudovirus entry, result in words",[2],failed to block viral entry
same,CC50,"Vero E6 cells; Vero E6, no virus, 3 days",> 100 µM
COC(=O)N[C@H](C(=O)N[C@@H](Cc1ccccc1)[C@@H](O)CN(Cc1ccc(-c2ccccn2)cc1)NC(=O)[C@@H](NC(=O)OC)C(C)(C)C)C(C)(C)C.O=S(=O)(O)O [Atazanavir Sulfate],IC50 (Mean +/- SD),SARS-CoV-2 [1],Not Active
same,CC50,"Vero E6 cells; Vero E6, no virus, 3 days",> 20 µM
CC(C)C(=O)OCC(=O)[C@@]12O[C@H](C3CCCCC3)O[C@@H]1C[C@H]1[C@@H]3CCC4=CC(=O)C=C[C@]4(C)[C@H]3[C@@H](O)C[C@@]12C [Ciclesonide],"Inhibition of SARS-CoV-2-induced cytopathic effect, result in words",SARS-CoV-2 [1],failed to protected Vero E6 cells from SARS-CoV-2 induced cytopathic effect
same,"Block of SARS-CoV-2 Spike pseudovirus entry, result in words",[2],partial blocking effect
same,CC50 at 3 days,in vitro; CC50,> 20 µM
CN(C)C(=O)COC(=O)Cc1ccc(OC(=O)c2ccc(NC(=N)N)cc2)cc1 [Camostat],"Inhibition of SARS-CoV-2-induced cytopathic effect, result in words",SARS-CoV-2 [1],no antiviral effect on Vero E6 cells
same,"Block of SARS-CoV-2 Spike pseudovirus entry, result in words",[2],failed to inhibit viral fusion; also recorded: displays no activity
same,"Block of SARS-CoV-2 Spike pseudovirus entry, result in words",[4],activity was rescued
same,CC50,in vitro,> 100 µM
CC(C)OC(=O)OCOP(=O)(CO[C@H](C)Cn1cnc2c(N)ncnc21)OCOC(=O)OC(C)C [Tenofovir disoproxil fumarate],"Inhibition of SARS-CoV-2-induced cytopathic effect, result in words",SARS-CoV-2 [1],failed to show any antiviral effect
same,CC50,in vitro,> 100 µM
CCOC(=O)[C@H]1O[C@@H]1C(=O)N[C@@H](CC(C)C)C(=O)NCCC(C)C [E-64d],IC50 (Mean +/- SD),SARS-CoV-2 [1],partialy active at 100
same,"Inhibition of SARS-CoV-2-induced cytopathic effect, result in words",SARS-CoV-2 [1],partial inhibitory activity
same,"Block of SARS-CoV-2 Spike pseudovirus entry, result in words",[2],active when TMPRSS2 is not present
same,CC50,"Vero E6 cells; Vero E6, no virus, 3 days",> 100 µM
CCC[C@@]1(CCc2ccccc2)CC(O)=C([C@H](CC)c2cccc(NS(=O)(=O)c3ccc(C(F)(F)F)cn3)c2)C(=O)O1 [Tipranavir],"Inhibition of SARS-CoV-2-induced cytopathic effect, result in words",SARS-CoV-2 [1],inhibited SARS-CoV-2-induced cytopathic effect at the non-toxic concentration of 20 μM
same,CC50 at 3 days,in vitro; [5],> 70 µM
CN(C)CCCN1c2ccccc2Sc2ccc(Cl)cc21 [Chlorpromazine],"Inhibition of SARS-CoV-2-induced cytopathic effect, result in words",SARS-CoV-2 [1],we did not find any prominent effect
same,CC50 at 3 days,in vitro; [5],> 18 µM
CCCNC(=O)[C@H]1O[C@@H]1C(=O)N[C@H](C(=O)N1CCC[C@H]1C(=O)OC)[C@@H](C)CC [CA-074-Me],IC50 (Mean +/- SD),SARS-CoV-2 [1],Not Active
same,"Inhibition of SARS-CoV-2-induced cytopathic effect, result in words",SARS-CoV-2 [1],could not be confirmed using the specific cathepsin B inhibitor CA-074-Me due to drug-associated toxicity
same,"Block of SARS-CoV-2 Spike pseudovirus entry, result in words",[2],partial blocking effect
same,CC50,"Vero E6 cells; Vero E6, no virus, 3 days",> 34 µM
Cc1c(O)cccc1C(=O)N[C@@H](CSc1ccccc1)[C@H](O)CN1C[C@H]2CCCC[C@H]2C[C@H]1C(=O)NC(C)(C)C [Nelfinavir mesylate hydrate],IC50,"SARS-CoV-2 [1]; Severe acute respiratory syndrome coronavirus 2, Vero C1008, 72 h, Vero E6, cytopathic effect 3 days after infection, repeated experiments, read-out: IC50 (Mean +/- SD)",< 10 µM
same,IC50,"SARS-CoV-2 [1]; Severe acute respiratory syndrome coronavirus 2, Vero C1008, Vero E6, one representative experiment with two replicates, when combined, each drug at the same concentration, read-out: IC50 value of the particular graph",1.4 µM
same,CC50 at 3 days,in vitro; [5],> 25 µM
CC(C)OC(=O)[C@H](C)N[P@](=O)(OC[C@H]1O[C@@H](n2ccc(=O)[nH]c2=O)[C@](C)(F)[C@@H]1O)Oc1ccccc1 [Sofosbuvir],IC50 (Mean +/- SD),SARS-CoV-2 [1],Not Active
same,CC50,in vitro,> 100 µM
CC(C)CN(C[C@@H](O)[C@H](Cc1ccccc1)NC(=O)O[C@H]1CCOC1)S(=O)(=O)c1ccc(N)cc1 [Amprenavir],"Inhibition of SARS-CoV-2-induced cytopathic effect, result in words",SARS-CoV-2 [1],exhibited activity at the non-toxic concentration of 100 µM
same,CC50 at 3 days,in vitro; CC50,> 100 µM
B1,CC50,"Vero E6 cells; interferons, Vero E6, no virus, 3 days",> 100 × 10^2 IU/mL
